Test results reported in ChEMBL document CHEMBL3886450, “Tricyclic indole derivatives useful endothelial lipase inhibitors” (2015).

Molecular target: T1, Endothelial lipase (Homo sapiens, UniProt Q9Y5X9)
T1 sequence (Q9Y5X9 whole entry): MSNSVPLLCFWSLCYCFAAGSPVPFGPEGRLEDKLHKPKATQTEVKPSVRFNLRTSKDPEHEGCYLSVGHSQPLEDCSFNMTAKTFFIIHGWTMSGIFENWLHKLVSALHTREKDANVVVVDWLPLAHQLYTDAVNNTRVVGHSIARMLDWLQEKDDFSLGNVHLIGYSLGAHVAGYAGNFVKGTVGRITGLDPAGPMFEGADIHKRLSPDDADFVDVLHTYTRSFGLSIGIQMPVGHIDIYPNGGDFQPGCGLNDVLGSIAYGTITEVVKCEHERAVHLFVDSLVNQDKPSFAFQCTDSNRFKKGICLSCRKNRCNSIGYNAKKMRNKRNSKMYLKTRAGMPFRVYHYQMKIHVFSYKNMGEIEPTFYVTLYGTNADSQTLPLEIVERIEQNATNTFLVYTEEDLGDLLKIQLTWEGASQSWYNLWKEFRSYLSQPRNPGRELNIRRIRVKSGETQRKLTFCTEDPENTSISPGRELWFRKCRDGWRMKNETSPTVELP
Experiment: Endothelial Lipase Assay: To assay for cell surface lipase activity, cells expressing human endothelial lipase (EL) or LPL were plated in CellBIND® 384-well plates (Corning, Lowell, Mass.) in 25 μL serum free medium at a density of 2000 cells/well. After 18-24 hours incubation at 37° C., the medium was removed and replaced with 15 μL assay buffer [Hank's Buffered Saline Solution with 25 mM HEPES pH 7.2] and 15 μL PLA1 substrate for a final concentration of 10 μM using a Multidrop reagent dispenser. Fluorescence signal was monitored for 30 min at 37° C. on a Safire II plate reader in kinetic mode (60 cycles, kinetic interval: 30 seconds) with an excitation wavelength of 490 nm and an emission wavelength of 515 nm.
Format: cell-based

Row | Compound | IC50 [nM]
1 | CC(CC(=O)N1CCn2c(CCc3ccccc3)c(C(F)(F)F)c3cccc(c32)C1)C(F)(F)F (configuration not stated) | 101
2 | NS(=O)(=O)N1CCn2c(CCc3ccccc3)c(C(F)(F)F)c3cccc(c32)C1 | 68
